Test system: Caco-2 cell monolayers
Type: in vitro ADME
Description: Alternatively, the in vitro transporter affinity of a drug substance can be determined and approximated by a Caco-2 cell assay as described, e.g., in […] et al., Pharm. Act. Helv. 71, 309-327 (1996), or as illustrated herein in the Examples. The identification of the transporter protein and the efficacy of a compound to inhibit the efflux system involved may as well be determined in the Caco-2 cell assay. […] Caco-2 cell monolayers grown on PET filters for 21-25 days are used for the transport experiments. The flux of compounds across Caco-2 cell monolayers grown on PET filters as well as across PET filters alone without Caco-2 cells is determined as follows: […] To start the experiment, the medium in the donor compartment (0.35 mL for apical and 1.15 mL for basolateral sides) is replaced with donor solution (compound in HBSS, when relevant containing inhibitor of interest) pre-incubated at 37° C. Aliquots of 150 μL are removed from the donor and the acceptor side after about 1 and 120 min. Transport experiments in both apical-to-basolateral and basolateral-to-apical directions are performed in triplicate at 37° C. in an incubator without shaking. […] Radioactive samples are analyzed by liquid scintillation counting. All other non-radiolabeled samples are kept frozen at -20° C. until analysis by liquid chromatography/tandem mass spectrometry (LC-MS/MS). Transport values of the compounds tested are determined using the following equation (Artursson et al., Biochem. Biophys. Res. Comm. 175: 880-885, 1991): where Papp (cm/min) is the apparent permeability coefficient, ΔQ is the amount of compound found in the acceptor compartment at time t, Δt (min) is the incubation time period, C0 (μg/mL) is the initial concentration of the compound in the donor compartment and A (cm^2) is the surface area of the membrane. […] Under the conditions of this study, the LOQ of absolute radioactivity is 2 dpm for [^14C]-labeled Aliskiren corresponding to 12 nmol/L. Papp values are presented as means±standard deviations of the transport experiments performed (n=3). […]

Structure (SMILES)	apical to basolateral flux of marker (Papp, below threshold) (human, Caco-2, 120 min)	efflux substrate identification (Caco-2)	intrinsic permeability (human, Caco-2, 120 min)
OC[C@@H](O)[C@@H](O)[C@H](O)[C@H](O)CO [Mannitol]	< 0.5 ×10⁻⁶ cm/s		
COCCCOc1cc(C[C@@H](C[C@H](N)[C@@H](O)C[C@H](C(=O)NCC(C)(C)C(N)=O)C(C)C)C(C)C)ccc1OC [Aliskiren, (2S,4S,5S,7S)-5-amino-4-hydroxy-2-isopropyl-7-[4-methoxy-3-(3-methoxy-propoxy)-benzyl]-8-methyl-nonanoic acid (2-carbamoyl-2-methyl-propyl)-amide hemifumarate]		substrate for a prominent efflux system	< 80%

From patent US20100234467A1, “METHODS FOR IMPROVING BIOAVAILABILITY OF A RENIN INHIBITOR” (priority 2006, published 2010)
